Test results from patent publication US20240041042A1, “1-(PYRIDYL)-5-AZINYLPYRAZOLE DERIVATIVES, AND THEIR USE FOR CONTROL OF UNDESIRED PLANT GROWTH” (Bayer Aktiengesellschaft, priority 2020, published 2024).
Where two headings read alike, the source gives them in different places.

What was measured:
Format in all cases: in vivo
[1] = system: Triticum aestivum (TRZAS); settings: crop plant compatibility, 80 g/ha, effect vs untreated controls
Outline: (§1)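 Effects were read visually as % versus untreated controls (0% = no effect, 100% = death) about 3 weeks post-treatment. Application was a post-emergence spray at the one-leaf stage of WP/EC formulations with 0.5% additive at 600 l/ha. Different dosages are denoted a, b and c.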

Oryza sativa (ORYSA) [2] = settings: crop plant compatibility, effect in comparison to untreated controls
Outline: as §1

[3] = system: Alopecurus myosuroides (ALOMY); test: Pre-emergence herbicidal action against ALOMY; settings: 320 g/ha; scored visually after about 3 weeks; 100% = plants have died
Outline: (§2)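 Read-out is visual percent damage relative to untreated pots, with 100% meaning dead plants and 0% meaning no difference, assessed roughly three weeks after treatment. Compounds were applied pre-emergence to the covering soil at up to 320 g/ha.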

[4] = system: Verconica persica (VERPE); test: Pre-emergence herbicidal action against VERPE; settings: dosage 320 g/ha
Outline: as §2

Zea mays (ZEAMX) = settings: pre-emergence, 80 g/ha, crop plant compatibility, in comparison to untreated controls
Outline: (§3)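 Scoring: visual, % of untreated control, about 3 weeks after a pre-emergence application to the soil surface. Application used WP or EC formulations diluted in water with 0.5% additive at 600 l/ha; dosage levels are marked by suffixes a, b and c.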

Oryza sativa (ORYSA) [5] = settings: pre-emergence, 80 g/ha, crop plant compatibility, in comparison to untreated controls
Outline: as §3

[6] = system: Amaranthus retroflexus (AMARE); test: Pre-emergence herbicidal action against AMARE; settings: visual scoring after about 3 weeks vs untreated controls
Outline: as §2

[7] = system: Alopecurus myosuroides (ALOMY); test: Post-emergence herbicidal action against ALOMY; settings: 320 g/ha, visual rating about 3 weeks after treatment vs untreated controls (100% = plants have died, 0% = like control plants)
Outline: (§4)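 Doses of 320 g/ha or lower, suffixes a, b and c marking different dosages, were applied post-emergence at the one-leaf stage in 600 l/ha water with 0.5% additive. Damage was assessed visually after about 3 weeks in the greenhouse.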

[8] = system: Echinochloa crus-galli (ECHCG); test: Post-emergence herbicidal action against ECHCG
Outline: as §4

[9] = system: Polygonum convolvulus (POLCO); test: Post-emergence herbicidal action against POLCO
Outline: as §4

Setaria viridis (SETVI) [10] = test: Pre-emergence herbicidal action against SETVI
Outline: as §2

Lolium rigidum (LOLRI) [11] = test: Pre-emergence herbicidal action against LOLRI; settings: dosage 320 g/ha
Outline: as §2

Avena fatua (AVEFA) [12] = test: Pre-emergence herbicidal action against AVEFA; settings: 320 g/ha, visual scoring after about 3 weeks vs untreated controls
Outline: as §2

[13] = system: Echinochloa crus-galli (ECHCG); test: Pre-emergence herbicidal action against ECHCG; settings: dosage 320 g/ha
Outline: as §2

[14] = system: Abutilon theophrasti (ABUTH); test: Pre-emergence herbicidal action against ABUTH; settings: Dosage column 320 g/ha (title prints 3200 g/ha); scored visually after about 3 weeks; 100% = plants have died
Outline: as §2

Viola tricolor (VIOTR) [15] = test: Pre-emergence herbicidal action against VIOTR
Outline: as §2

[16] = system: Matricaria inodora (MATIN); test: Pre-emergence herbicidal action against MATIN
Outline: as §2

[17] = system: Polygonum convolvulus (POLCO); test: Pre-emergence herbicidal action against POLCO
Outline: as §2

[18] = system: Amaranthus retroflexus (AMARE); test: Post-emergence herbicidal action against AMARE
Outline: as §4

[19] = system: Pharbitis purpurea (PHBPU); test: Post-emergence herbicidal action against PHBPU; settings: dosage 320 g/ha
Outline: as §4

Setaria viridis (SETVI) [20] = test: Post-emergence herbicidal action against SETVI
Outline: as §4

[21] = system: Pharbitis purpurea (PHBPU); test: Pre-emergence herbicidal action against PHBPU
Outline: as §2

[22] = system: Verconica persica (VERPE); test: Post-emergence herbicidal action against VERPE
Outline: as §4

[23] = system: Triticum aestivum (TRZAS); settings: pre-emergence, 80 g/ha, crop plant compatibility, in comparison to untreated controls
Outline: as §3

Avena fatua (AVEFA) [24] = test: Post-emergence herbicidal action against AVEFA; settings: 320 g/ha, visual rating about 3 weeks after treatment
Outline: as §4

Lolium rigidum (LOLRI) [25] = test: Post-emergence herbicidal action against LOLRI; settings: dosage 320 g/ha
Outline: as §4

[26] = system: Matricaria inodora (MATIN); test: Post-emergence herbicidal action against MATIN; settings: dosage 320 g/ha
Outline: as §4

Viola tricolor (VIOTR) [27] = test: Post-emergence herbicidal action against VIOTR
Outline: as §4

[28] = system: Abutilon theophrasti (ABUTH); test: Post-emergence herbicidal action against ABUTH; settings: visual rating about 3 weeks after treatment vs untreated controls (100% = plants have died, 0% = like control plants)
Outline: as §4

[29] = 80 g/ha, visual rating about 3 weeks after treatment vs untreated controls (100% = plants have died, 0% = like control plants)
[30] = 320 g/ha, visual rating about 3 weeks after treatment

Row | Structure (SMILES) | Post-emergence action against TRZAS in % [1] [%] | Post-emergence action against ORYSA in % (Oryza sativa (ORYSA) [2]; 80 g/ha) [%] | Pre-emergence action against VERPE in % [4] [%] | Pre-emergence action against AMARE in % ([6]; 80 g/ha) [%] | Pre-emergence action against AMARE in % ([6]; 320 g/ha) [%] | Post-emergence action against ECHCG in % ([8]; dosage 320 g/ha) [%] | Post-emergence action against POLCO in % ([9]; dosage 320 g/ha) [%] | Pre-emergence action against SETVI in % (Setaria viridis (SETVI) [10]; dosage 320 g/ha) [%] | Pre-emergence action against LOLRI in % (Lolium rigidum (LOLRI) [11]) [%] | Pre-emergence action against ECHCG in % [13] [%] | Pre-emergence action against VIOTR in % (Viola tricolor (VIOTR) [15]; 320 g/ha, Viola tricolor) [%] | Pre-emergence action against VIOTR in % (Viola tricolor (VIOTR) [15]; dosage 80 g/ha) [%] | Pre-emergence action against MATIN in % ([16]; dosage 320 g/ha) [%] | Pre-emergence action against POLCO in % ([17]; dosage 320 g/ha) [%] | Post-emergence action against AMARE in % [18, 29] [%] | Post-emergence action against AMARE in % [18, 30] [%] | Post-emergence action against SETVI in % (Setaria viridis (SETVI) [20]; dosage 320 g/ha) [%] | Pre-emergence action against PHBPU in % ([21]; dosage 320 g/ha) [%] | Pre-emergence action against TRZAS in % [23] [%] | also measured
1 | O=C(O)C1CCCN1C(=O)COc1nn(-c2ccccn2)c(-c2ccc(F)nc2)c1Br (centres unmarked) [Example I-111] | 0 | 0 | 90 | 90 | 100 | 90 | 80 | 100 | 100 | 100 | 100 | 80 | 80 | 100 | 80 | 90 |  |  |  | Post-emergence action against ORYSA in % (Oryza sativa (ORYSA) [2]; 320 g/ha): 0%; Pre-emergence action against ALOMY [3]: 90%; Pre-emergence action against ZEAMX in % (Zea mays (ZEAMX)): 0%; Pre-emergence action against ORYSA in % (Oryza sativa (ORYSA) [5]): 0%; Post-emergence action against ALOMY in % [7]: 100%; Pre-emergence action against SETVI in % (Setaria viridis (SETVI) [10]; dosage 80 g/ha): 90%; Pre-emergence action against AVEFA in % (Avena fatua (AVEFA) [12]): 80%; Pre-emergence action against ABUTH [14]: 80%; Pre-emergence action against POLCO in % ([17]; dosage 80 g/ha): 80%
2 | COC(=O)CCOC(=O)COc1nn(-c2ncccc2C(F)(F)F)c(-c2cncc(F)c2)c1Br [Example I-160] | 20 | 0 | 90 |  | 80 |  |  |  |  | 90 | 100 | 90 | 80 | 90 |  |  | 80 | 90 | 20 | Post-emergence action against PHBPU in % [19]: 90%; Pre-emergence action against PHBPU in % ([21]; dosage 80 g/ha): 80%; Post-emergence action against VERPE in % ([22]; 320 g/ha, VERPE): 90%; Post-emergence action against VERPE in % ([22]; dosage 80 g/ha): 80%
3 | O=C(O)CSc1nn(-c2ccccn2)c(-c2cncc(F)c2)c1Cl [Example I-217] |  | 0 |  | 80 | 100 | 90 | 80 | 90 | 100 | 90 | 90 |  | 90 | 80 | 90 | 90 | 90 | 90 | 0 | Post-emergence action against SETVI in % (Setaria viridis (SETVI) [20]; dosage 80 g/ha): 80%; Post-emergence action against AVEFA in % (Avena fatua (AVEFA) [24]): 90%; Post-emergence action against LOLRI in % (Lolium rigidum (LOLRI) [25]): 80%; Post-emergence action against MATIN in % [26]: 80%; Post-emergence action against VIOTR in % (Viola tricolor (VIOTR) [27]; 80 g/ha): 80%; Post-emergence action against VIOTR in % (Viola tricolor (VIOTR) [27]; 320 g/ha): 90%; Post-emergence action against ECHCG in % ([8]; dosage 80 g/ha): 90%; Post-emergence action against POLCO in % ([9]; dosage 80 g/ha): 80%; Pre-emergence action against MATIN in % ([16]; dosage 80 g/ha): 80%; Post-emergence action against ABUTH in % ([28]; 80 g/ha): 80%; Post-emergence action against ABUTH in % ([28]; 320 g/ha): 90%
